Measured values as given in patent US8822482B2, “Icotinib hydrochloride, synthesis, crystalline forms, pharmaceutical compositions, and uses thereof” (Beta Pharma, Inc., priority 2008, dated 2014).
pEC50, pIC50: −log10 of the molar value.

What was measured:
[1] = biological target: Arg (abl-related gene) tyrosine kinase (Homo sapiens, UniProt P42684); assay: Selectivity: inhibition of Arg tyrosine kinase, Crk substrate phosphorylation, same methodology; type: biochemical; conditions: 62.5 nM
Procedure: Method: This method is based on the ability of protein kinases to catalyze substrate phosphorylation; radioisotope ^32P-labeled ATP (^32P-γ-ATP) is utilized in the reaction system to radioactively tag the protein substrate with ^32P. After separation and isolation of the protein substrate by polyacrylamide gel electrophoresis, the intensity of the radioactive ^32P-labeled protein substrate is recorded.
The kinase reaction buffer included 1 μM of non-isotope labeled-ATP. […] The mixture was incubated on ice for 10 min, and 1 μCi of ^32P-γ-ATP was then added. After incubation at 30° C. for 20 min, SDS (sodium dodecyl sulfate) sample buffer was added, and the mixture was boiled in a 100° C. water bath for 4 min. The samples were separated by 10% SDS-PAGE. After vacuum drying of the polyacrylamide gel, the intensity of radioactively labeled proteins were measured and recorded using a Phosphorimager (Molecular Dynamics Inc.). The signal was quantitatively analyzed utilizing ImageQuant software. The degree of Crk substrate phosphorylation was used to estimate the activity of the kinase. Inhibition (%)=(1−kinase activity of the test group/kinase activity of control group)×100%

[2] = test system: EGFR tyrosine kinase-mediated intracellular protein tyrosine phosphorylation in A431 cells; assay: Inhibition of EGFR-mediated protein phosphorylation at the cellular level (A431 cells, EGF-stimulated, anti-phosphotyrosine blot); type: cell-based; conditions: Homo sapiens
Procedure: Methods: The experiment utilized a high EGFR-expressing cell line, A431 (human epidermoid carcinoma). A431 cells in logarithmic growth phase were seeded into 12-well cell culture plates (5×10^5 cells/well); the cells were grown in DMEM cell culture medium (Gibco Company) containing 10% fetal calf serum (FCS) at 37° C. in 5% CO2 for 18 hours. The cells were washed twice with PBS buffer, and DMEM without FCS was then added. After incubating for 18 hours, Icotinib hydrochloride Crystalline Form I in dimethyl sulfoxide (DMSO) was added to individual wells at final concentrations of 0, 10, 50, 250 or 1000 nM. After incubating at 37° C. for 2.5 hours, 100 ng/ml of EGF was added to stimulate the cells for 5 minutes. Cells were then extracted in the presence 1 mM vanadate (inhibits dephosphorylation) to collect total cellular proteins, and proteins were resolved by 10% SDS-PAGE and transferred to nitrocellulose. Following detection of phosphorylated proteins with anti-phosphotyrosine antibodies (PY99 and 4G10, Upstate Biotech) and visualization with a horseradish peroxidase-labeled second antibody (Transduction Laboratories, Inc.) and ECL chemiluminescence (Amersham Corp.), bands were quantified by densitometry. Membranes were then stripped and incubated with anti-EGFR antibodies to compare amounts of EGFR in cells exposed to different concentrations of Icotinib hydrochloride Crystalline Form I as an internal control. Inhibition (%)=(1−kinase activity of the test group/kinase activity of control group)×100%

[3] = test system: A431 human epidermoid carcinoma; assay: Tumor cell growth inhibition in vitro, MTT assay; type: cell-based; conditions: A-431, A431, 96 hr
Procedure: (§1) Method: Cells (˜2×10^3) were seeded in 96-well plates in 200 μL of RPMI1640 cell culture medium supplemented with 10% FBS. After 24 hours at 37° C. and 5% CO2, the medium was replaced in quintuplicate wells with medium containing Icotinib hydrochloride Crystalline Form I dissolved in DMSO and then serial diluted, yielding final Icotinib concentrations of 0.05-300 μM. DMSO concentrations were less than 0.1% at the highest drug concentrations. Cells were incubated in medium alone with 0.1% DMSO as a negative control. Following a 96 hr incubation, the MTT [3-(4,5-dimethylthiazol-2-yl)-2,5-diphenyltetrazolium] colorimetric assay was performed using a microplate reader (reference wavelength 450 nm, detection wavelength 570 nm). The logarithm of drug concentration on the inhibition rate was linear, and the half inhibitory concentration of the drug (IC50) was obtained.

[4] = test system: A549 human non-small cell lung cancer cells; assay: Tumor cell growth inhibition in vitro, MTT assay; type: cell-based
Procedure: as §1

[5] = test system: BEL-7402 human hepatoma cells; assay: Tumor cell growth inhibition in vitro, MTT assay; type: cell-based
Procedure: as §1

[6] = test system: BGC-823 human gastric cancer cells; assay: Tumor cell growth inhibition in vitro, MTT assay; type: cell-based
Procedure: as §1

[7] = test system: H460 human lung adenocarcinoma cells; assay: Tumor cell growth inhibition in vitro, MTT assay; type: cell-based
Procedure: as §1

[8] = test system: HCT8 human colon cancer cells; assay: Tumor cell growth inhibition in vitro, MTT assay; type: cell-based
Procedure: as §1

[9] = test system: KB human epidermoid carcinoma cells; assay: Tumor cell growth inhibition in vitro, MTT assay; type: cell-based
Procedure: as §1

in vivo = assay: in vivo
Procedure: (§2) In addition, non-clinical pharmacokinetic studies of Icotinib hydrochloride Crystalline Form I in Beagle dogs and rats were conducted.

P450 enzymes = assay: Induction of P450 enzymes in rat liver; type: in vivo
Procedure: as §2

[10] = Pharmacokinetic study of the different crystalline forms and the free base in rats; type: in vivo, Wistar rats; conditions: for The area under the concentration-time curve (0-infinity) / The area under the concentration-time curve (0-t): fasted Wistar rats, oral suspension, dose equivalent to 35 mg/kg Icotinib hydrochloride, plasma, hydrochloride
Procedure: Drugs and reagents: Icotinib (free base) and Icotinib hydrochloride crystalline forms I, II, III, and IV were ground to fine particles. The material content (purity) was not less than 99.0%. Sodium carboxymethyl cellulose was medical supply graded. Experimental animals: Wistar rats, male and female, 150-220 g each. Pharmaceutical preparation: Weigh the appropriate amount of each substance and add sodium carboxymethyl cellulose to 0.5%. Prepare a suspension at a final concentration of 3.5 mg/mL in water. Administration and sample collection: Each suspension was administered orally to fasted Wistar rats at a dose equivalent to 35 mg/kg Icotinib hydrochloride in a dose volume of 10 ml/kg. […] After purification, samples were analyzed by high performance liquid chromatography. The chromatographic conditions utilized C18-silane bonded silica as stationary phase, 0.02 mol/L of sodium dihydrogen phosphate in acetonitrile (40:60, using sodium hydroxide solution to adjust pH to 5.0) as the mobile phase and a detection wavelength of 334 nm.

Arg (abl-related gene) tyrosine kinase, sequence (P42684 whole entry): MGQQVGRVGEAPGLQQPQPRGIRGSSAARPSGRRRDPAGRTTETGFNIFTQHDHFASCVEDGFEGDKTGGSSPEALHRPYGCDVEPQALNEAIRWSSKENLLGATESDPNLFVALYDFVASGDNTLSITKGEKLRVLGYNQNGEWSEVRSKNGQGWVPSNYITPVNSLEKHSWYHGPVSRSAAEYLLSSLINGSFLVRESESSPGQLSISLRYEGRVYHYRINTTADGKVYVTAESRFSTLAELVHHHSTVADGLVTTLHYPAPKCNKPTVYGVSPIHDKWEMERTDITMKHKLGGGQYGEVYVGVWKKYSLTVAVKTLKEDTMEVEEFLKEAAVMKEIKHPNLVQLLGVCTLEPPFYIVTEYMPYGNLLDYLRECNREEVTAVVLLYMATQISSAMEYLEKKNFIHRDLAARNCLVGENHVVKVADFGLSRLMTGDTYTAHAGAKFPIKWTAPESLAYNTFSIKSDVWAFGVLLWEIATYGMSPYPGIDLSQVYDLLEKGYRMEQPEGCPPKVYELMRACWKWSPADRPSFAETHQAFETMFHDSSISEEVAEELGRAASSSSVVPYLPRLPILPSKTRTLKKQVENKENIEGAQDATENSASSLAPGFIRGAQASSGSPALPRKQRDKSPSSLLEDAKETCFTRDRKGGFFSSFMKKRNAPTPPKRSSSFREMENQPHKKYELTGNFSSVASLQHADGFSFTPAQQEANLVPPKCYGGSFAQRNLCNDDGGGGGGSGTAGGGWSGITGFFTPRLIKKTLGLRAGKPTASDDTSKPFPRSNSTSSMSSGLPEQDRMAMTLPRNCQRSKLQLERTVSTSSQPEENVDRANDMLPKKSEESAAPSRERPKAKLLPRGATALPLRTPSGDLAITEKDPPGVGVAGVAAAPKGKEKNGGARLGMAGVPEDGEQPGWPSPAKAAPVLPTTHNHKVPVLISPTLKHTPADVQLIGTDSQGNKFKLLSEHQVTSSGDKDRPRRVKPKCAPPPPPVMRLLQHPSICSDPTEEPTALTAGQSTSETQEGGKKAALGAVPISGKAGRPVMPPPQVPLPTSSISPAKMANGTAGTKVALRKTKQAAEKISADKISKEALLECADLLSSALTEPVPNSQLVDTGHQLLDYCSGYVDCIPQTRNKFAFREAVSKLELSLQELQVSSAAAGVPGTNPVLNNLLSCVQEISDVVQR

SMILES: C#Cc1cccc(Nc2ncnc3cc4c(cc23)OCCOCCOCCO4)c1.Cl [4-[(3-ethynyl-phenyl)amino]-6,7-benzo-12-crown-quinazoline hydrochloride]
- inhibition of Arg kinase [1]: did not inhibit
- pEC50 ([2]; A-431, read-out: median effective concentration (EC50)): ~7.30
- inhibition at 0.01 µM ([2]; A-431, A431 cells, 10 nM, read-out: inhibition of EGF-induced intracellular protein tyrosine phosphorylation): 5.4%
- inhibition at 0.05 µM ([2]; A-431, A431 cells, 50 nM, read-out: inhibition of EGF-induced intracellular protein tyrosine phosphorylation): 52.9%
- inhibition at 0.25 µM ([2]; A-431, A431 cells, 250 nM, read-out: inhibition of EGF-induced intracellular protein tyrosine phosphorylation): 61.9%
- inhibition at 1 µM ([2]; A-431, A431 cells, 1000 nM, read-out: inhibition of EGF-induced intracellular protein tyrosine phosphorylation): 63.7%
- pIC50 [3]: 6.00
- pIC50 ([4]; A549, 96 hr, listed as lcotinib hydrochloride Crystalline Form I, hydrochloride): 4.92
- pIC50 ([4]; Homo sapiens, A549, 96 h): 4.92
- activity against tumor cells (in words) ([5]; BEL-7402): low activity
- pIC50 ([5]; Homo sapiens, BEL-7402, 96 hr, MTT): < 3.70
- pIC50 ([6]; BGC-823, 96 hr, listed as lcotinib hydrochloride Crystalline Form I, hydrochloride): 5.39
- pIC50 ([6]; Homo sapiens, BGC-823, 96 h): 5.40
- pIC50 ([7]; H460, 96 hr, listed as lcotinib hydrochloride Crystalline Form I, hydrochloride): 4.79
- pIC50 ([7]; Homo sapiens, NCI-H460, 96 h): 4.80
- activity against tumor cells (in words) ([8]; HCT8): low activity
- pIC50 ([8]; Homo sapiens, HCT-8, HCT8, 96 hr, MTT): < 3.70
- activity against tumor cells (in words) [9]: low activity
- pIC50 ([9]; Homo sapiens, 96 hr, MTT): 4.39
- route of elimination (in vivo): mainly through fecal excretion
- tissue distribution (in vivo): widely distributed to various tissues, but was low in brain tissue
- Tmax (in vivo; Beagle (dogs), rat, dog, po): ~1 h
- bioavailability (in vivo; Beagle (dogs), rat, dog, po): 27 to 62%
- induction effect on P450 enzymes (P450 enzymes): No significant induction effect
- area under the concentration-time curve (0-t) and (0-infinity) relative to the free base form ([10]; Wistar rats, oral, 35 mg/kg equivalent): approximately 3 times
- The area under the concentration-time curve (0-infinity) ([10]; listed as Crystalline Form I): 93.73
- The area under the concentration-time curve (0-t) ([10]; listed as Crystalline Form I): 91.80
- The area under the concentration-time curve (0-infinity) ([10]; listed as Crystalline Form II): 90.77
- The area under the concentration-time curve (0-t) ([10]; listed as Crystalline Form II): 88.28
- The area under the concentration-time curve (0-infinity) ([10]; listed as Crystalline Form III): 90.26
- The area under the concentration-time curve (0-t) ([10]; listed as Crystalline Form III): 89.23
- The area under the concentration-time curve (0-infinity) ([10]; listed as Crystalline Form IV): 90.23
- The area under the concentration-time curve (0-t) ([10]; listed as Crystalline Form IV): 86.29
